# Test results reported in patent publication US9145351B2, “Azole derivatives, methods for producing the same, intermediate thereof, agro-horticultural agents” (KUREHA CORPORATION, priority 2009, dated 2015).
# How the values were obtained:
# Type in all cases: cell-based
# Fusarium graminearum = assay: microbe, parasite or virus in culture
# Sclerotinia sclerotiorum = assay: Plate medium fungicidal assay, Sclerotinia rot S.s (Experimental Example 5)
# Summary of the method: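 A 4 mm mycelial plug was placed on PDA plates containing compound at 50 mg/L and 5 mg/L, added from DMSO solution. Colony diameters were compared with untreated plates, % mycelial growth inhibition was R=100(dc−dt)/dc, and scores fell into 5 grades.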
# Alternaria alternata = assay: Plate medium fungicidal assay, Alternaria blotch A.m (Experimental Example 5)
# Summary of the method: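 Compound dissolved in DMSO and mixed into PDA plates at 50 mg/L and 5 mg/L; 4 mm mycelial plug inoculated. Colony diameter compared with untreated plates, % mycelial growth inhibition = 100(dc−dt)/dc, converted to one of 5 grades.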
# Botritis cinerea = assay: Plate medium fungicidal assay, gray mold B.c (Experimental Example 5)
# Summary of the method: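 Compounds in DMSO were incorporated into PDA plate medium at 50 mg/L and 5 mg/L, then inoculated with 4 mm mycelial plugs of Botrytis cinerea. Colony diameter versus untreated plates gave % mycelial growth inhibition, R=100(dc−dt)/dc, scored on a 5-grade scale.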
# Rhynchosporium secalis = assay: Plate medium fungicidal assay, barley leaf blotch R.sec (Experimental Example 5)
# Summary of the method: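 Compound in DMSO mixed into PDA plate medium at 50 mg/L and 5 mg/L; 4 mm mycelial plug of the fungus inoculated. Colony diameter compared with untreated plates gives % mycelial growth inhibition R=100(dc−dt)/dc, scored on a 5-grade scale.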
# [1] = tested on: Pseudocercoporella herpotrichoides; assay: Plate medium fungicidal assay, wheat eye spot P.h (Experimental Example 5)
# Summary of the method: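 Compound in DMSO mixed into PDA agar for plates at 50 mg/L and 5 mg/L, inoculated with a 4 mm mycelial plug of Pseudocercosporella herpotrichoides. Colony diameter compared with untreated plates: % mycelial growth inhibition = 100(dc−dt)/dc, scored on a 5-grade scale.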
# Pyricularia oryzae = assay: microbe, parasite or virus in culture
# [2] = plate medium containing compound at 5 mg/L
# [3] = plate medium containing compound at 50 mg/L
Compound,"Growth inhibition grade, F.g (Fusarium graminearum; plate medium, 5 mg/L)","Growth inhibition grade, F.g (Fusarium graminearum; plate medium, 50 mg/L)","Growth inhibition grade, S.s (Sclerotinia sclerotiorum; plate medium, 5 mg/L)","Growth inhibition grade, S.s (Sclerotinia sclerotiorum; plate medium, 50 mg/L)","Growth inhibition grade, A.m (Alternaria alternata; plate medium, 5 mg/L)","Growth inhibition grade, A.m (Alternaria alternata; plate medium, 50 mg/L)","Growth inhibition grade, B.c (Botritis cinerea; plate medium, 5 mg/L)","Growth inhibition grade, B.c (Botritis cinerea; plate medium, 50 mg/L)","Growth inhibition grade, R.sec (Rhynchosporium secalis; plate medium, 5 mg/L)","Growth inhibition grade, R.sec (Rhynchosporium secalis; plate medium, 50 mg/L)","Growth inhibition grade, P.h ([1]; plate medium, 5 mg/L)","Growth inhibition grade, P.h ([1]; plate medium, 50 mg/L)","Growth inhibition grade, P.o (Pyricularia oryzae; plate medium, 5 mg/L)","Growth inhibition grade, P.o (Pyricularia oryzae; plate medium, 50 mg/L)",other results
CC[C@]1(CCl)CC[C@@H](Cc2ccccc2)[C@]1(O)Cn1cncn1 (relative stereo) [Compound I-97],,,,,,,,,,,,,,,"Growth inhibition grade, F.g (Fusarium graminearum; [2]): 5 (% Mycerial growth inhibition of 80% or higher); Growth inhibition grade, F.g (Fusarium graminearum; [3]): 5 (% Mycerial growth inhibition of 80% or higher); Growth inhibition grade, S.s (Sclerotinia sclerotiorum; [2]): 5 (% Mycerial growth inhibition of 80% or higher); Growth inhibition grade, S.s (Sclerotinia sclerotiorum; [3]): 5 (% Mycerial growth inhibition of 80% or higher); Growth inhibition grade, A.m (Alternaria alternata; [2]): 4 (% Mycerial growth inhibition of less than 80 to 60% or higher); Growth inhibition grade, A.m (Alternaria alternata; [3]): 5 (% Mycerial growth inhibition of 80% or higher); Growth inhibition grade, B.c (Botritis cinerea; [2]): 5 (% Mycerial growth inhibition of 80% or higher); Growth inhibition grade, B.c (Botritis cinerea; [3]): 5 (% Mycerial growth inhibition of 80% or higher); Growth inhibition grade, R.sec (Rhynchosporium secalis; [2]): 5 (% Mycerial growth inhibition of 80% or higher); Growth inhibition grade, R.sec (Rhynchosporium secalis; [3]): 5 (% Mycerial growth inhibition of 80% or higher); Growth inhibition grade, P.h [1, 2]: 5 (% Mycerial growth inhibition of 80% or higher); Growth inhibition grade, P.h [1, 3]: 5 (% Mycerial growth inhibition of 80% or higher); Growth inhibition grade, P.o (Pyricularia oryzae; [2]): 5 (% Mycerial growth inhibition of 80% or higher); Growth inhibition grade, P.o (Pyricularia oryzae; [3]): 5 (% Mycerial growth inhibition of 80% or higher)"
C[C@@]1(CCl)CC[C@@H](Cc2cccc(Cl)c2)[C@]1(O)Cn1cncn1 (relative stereo) [Compound I-174],5 (% Mycerial growth inhibition of 80% or higher),5 (% Mycerial growth inhibition of 80% or higher),5 (% Mycerial growth inhibition of 80% or higher),5 (% Mycerial growth inhibition of 80% or higher),5 (% Mycerial growth inhibition of 80% or higher),5 (% Mycerial growth inhibition of 80% or higher),5 (% Mycerial growth inhibition of 80% or higher),5 (% Mycerial growth inhibition of 80% or higher),5 (% Mycerial growth inhibition of 80% or higher),5 (% Mycerial growth inhibition of 80% or higher),5 (% Mycerial growth inhibition of 80% or higher),5 (% Mycerial growth inhibition of 80% or higher),5 (% Mycerial growth inhibition of 80% or higher),5 (% Mycerial growth inhibition of 80% or higher),
"O[C@]1(Cn2cncn2)[C@H](Cc2ccc(Cl)cc2)CCC1(CCl)CCl (relative stereo) [Compound I-203, cis-5-(4-chlorobenzyl)-2,2-bis(chloromethyl)-1-(1H-1,2,4-triazol-1-yl)methylcyclopentanol]",5 (% Mycerial growth inhibition of 80% or higher),5 (% Mycerial growth inhibition of 80% or higher),5 (% Mycerial growth inhibition of 80% or higher),5 (% Mycerial growth inhibition of 80% or higher),5 (% Mycerial growth inhibition of 80% or higher),5 (% Mycerial growth inhibition of 80% or higher),5 (% Mycerial growth inhibition of 80% or higher),5 (% Mycerial growth inhibition of 80% or higher),5 (% Mycerial growth inhibition of 80% or higher),5 (% Mycerial growth inhibition of 80% or higher),5 (% Mycerial growth inhibition of 80% or higher),5 (% Mycerial growth inhibition of 80% or higher),5 (% Mycerial growth inhibition of 80% or higher),5 (% Mycerial growth inhibition of 80% or higher),
C[C@]1(CCl)CC[C@H](Cc2cccc(Cl)c2)[C@]1(O)Cn1cncn1 (relative stereo) [Compound I-374],5 (% Mycerial growth inhibition of 80% or higher),5 (% Mycerial growth inhibition of 80% or higher),5 (% Mycerial growth inhibition of 80% or higher),5 (% Mycerial growth inhibition of 80% or higher),4 (% Mycerial growth inhibition of less than 80 to 60% or higher),5 (% Mycerial growth inhibition of 80% or higher),5 (% Mycerial growth inhibition of 80% or higher),5 (% Mycerial growth inhibition of 80% or higher),5 (% Mycerial growth inhibition of 80% or higher),5 (% Mycerial growth inhibition of 80% or higher),5 (% Mycerial growth inhibition of 80% or higher),5 (% Mycerial growth inhibition of 80% or higher),5 (% Mycerial growth inhibition of 80% or higher),5 (% Mycerial growth inhibition of 80% or higher),
